Like-named read-outs stand apart in the source and are kept apart here.
What was measured:
[1] = system: A549 cells; test: Phospholipidosis imaging (NBD-PE fluorescence); conditions: 24 h, sangivamycin up to 5 μM, melperone 10 μM, amiodarone positive control
[2] = system: SARS-CoV-2 WA1; test: microbe, parasite or virus in culture; format: cell-based; conditions: for IC50: read-out: IC50
[3] = system: COVID-19 higher risk individuals; parameters: method as in earlier work; conditions: phase III clinical trial with 1433 patients, FDA advisory committee analysis; cited from earlier work
[4] = system: SARS-CoV-2 P.1 (Gamma); test: microbe, parasite or virus in culture; format: cell-based; conditions: Severe acute respiratory syndrome coronavirus 2, Calu-3, 24 h
[5] = system: SARS-CoV-2 B.1.427 (Epsilon); test: microbe, parasite or virus in culture; format: cell-based; conditions: Severe acute respiratory syndrome coronavirus 2, Calu-3, 24 h
[6] = system: SARS-CoV-2 B.1.617.2 (Delta); test: microbe, parasite or virus in culture; format: cell-based; conditions: Severe acute respiratory syndrome coronavirus 2, VeroE6/TMPRSS2, 18 h
[7] = system: SARS-CoV-2 B.1.427 (Epsilon); test: microbe, parasite or virus in culture; format: cell-based; conditions: Severe acute respiratory syndrome coronavirus 2, Vero C1008, 24 h
[8] = system: SARS-CoV-2 B.1.351 (Beta); test: microbe, parasite or virus in culture; format: cell-based; conditions: Severe acute respiratory syndrome coronavirus 2, Vero C1008, 18 h
[9] = system: SARS-CoV-2 WA1; test: microbe, parasite or virus in culture; format: cell-based; conditions: Severe acute respiratory syndrome coronavirus 2, Caco-2, 96 h
[10] = system: SARS-CoV-2; test: Combinatorial sangivamycin/remdesivir efficacy testing, Vero E6 cells; format: cell-based; conditions: Severe acute respiratory syndrome coronavirus 2, Vero C1008; read-out: IC50 (nM), S:R by [Remdesivir]
[11] = laboratory mouse liver, lung, and kidney microsomes; cited from earlier work
[12] = system: SARS-CoV-2 B.1.1.7 (Alpha); test: microbe, parasite or virus in culture; format: cell-based; conditions: Severe acute respiratory syndrome coronavirus 2, Vero C1008, 24 h
[13] = system: SARS-CoV-2 B.1.617.2 (Delta); test: microbe, parasite or virus in culture; format: cell-based; conditions: Severe acute respiratory syndrome coronavirus 2, Calu-3, 24 h
[14] = system: SARS-CoV-2 WA1; test: microbe, parasite or virus in culture; format: cell-based; conditions: Severe acute respiratory syndrome coronavirus 2, Calu-3, 72 h
[15] = system: SARS-CoV-2 P.2 (Zeta); test: microbe, parasite or virus in culture; format: cell-based; conditions: Severe acute respiratory syndrome coronavirus 2, Vero C1008, 24 h
[16] = system: SARS-CoV-2; test: Combinatorial sangivamycin/remdesivir efficacy testing, Caco-2 cells; format: cell-based; conditions: Severe acute respiratory syndrome coronavirus 2, Caco-2; read-out: IC50 (nM), S:R by [Remdesivir]
[17] = system: SARS-CoV-2 P.1 (Gamma); test: microbe, parasite or virus in culture; format: cell-based; conditions: Severe acute respiratory syndrome coronavirus 2, Vero C1008, 24 h
[18] = system: SARS-CoV-2 P.2 (Zeta); test: microbe, parasite or virus in culture; format: cell-based; conditions: Severe acute respiratory syndrome coronavirus 2, Calu-3, 24 h
[19] = system: SARS-CoV-2 B.1.429 (Epsilon); test: microbe, parasite or virus in culture; format: cell-based; conditions: Severe acute respiratory syndrome coronavirus 2, Vero C1008, 48 h
[20] = mice; cited from earlier work
[21] = system: SARS-CoV-2; test: Combinatorial sangivamycin/remdesivir efficacy testing, Calu-3 cells; format: cell-based; conditions: Severe acute respiratory syndrome coronavirus 2, Calu-3; read-out: IC50 (nM), S:R by [Remdesivir]
[22] = system: SARS-CoV-2 B.1.1.7 (Alpha); test: microbe, parasite or virus in culture; format: cell-based; conditions: Severe acute respiratory syndrome coronavirus 2, Calu-3, 24 h
[23] = system: SARS-CoV-2 B.1.351 (Beta); test: microbe, parasite or virus in culture; format: cell-based; conditions: Severe acute respiratory syndrome coronavirus 2, Calu-3, 48 h
[24] = system: SARS-CoV-2 B.1.429 (Epsilon); test: microbe, parasite or virus in culture; format: cell-based; conditions: Severe acute respiratory syndrome coronavirus 2, Calu-3, 24 h
[25] = 24-hour plasma pharmacokinetics in CD-1 laboratory mice; format: in vivo, mouse; conditions: CD-1 mice, sangivamycin i.p. 60 mg/kg; not in control mice
Method: We next evaluated the 24-hour pharmacokinetics (PK) of sangivamycin in CD-1 laboratory mouse plasma. Sangivamycin’s plasma concentrations increased following i.p. injection of 60 mg/kg to a peak at 2 hours, then decreased over 6 or 8 hours, and remained virtually unchanged up to 24 hours after dosing. […] Graphing plasma concentration versus time produced an area under the curve to the last time point with values of 632 ± 66.6 h•ng/mL for males and 833 ± 53.9 h•ng/mL for females. […] Our data corroborate historical PK studies in mice with ^3H-labeled sangivamycin performed at the NCI in 1974 ([20]). In these studies, free nucleoside and mono-, di-, and triphosphate forms of sangivamycin were detected in blood, urine, and multiple tissues (e.g., heart, liver, brain, spleen, and kidneys) following i.p. injection of 8 mg/kg. The studies established that sangivamycin was phosphorylated after transportation into cells. In liver, heart, and brain, the predominant form of sangivamycin was sangivamycin 5′-monophosphate (SMP). […] Therefore, we determined the level of SMP in blood in our PK study using a published liquid chromatography–tandem mass spectrometry (LC-MS/MS) method with a lower limit of quantification of 1 ng/mL ([33]). Using this method, we detected SMP in the plasma of dosed mice but not control mice (Supplemental Figure 9B). The apparent levels of SMP increased in blood during the 24 hours of this study. There also was possible presence of a diphosphate metabolite of sangivamycin, but it was detected only in the plasma samples taken 24 hours after dosing.

[26] = Severe acute respiratory syndrome coronavirus 2, Vero C1008, 48 h

SMILES: CCCCc1oc2ccccc2c1C(=O)c1cc(I)c(OCCN(CC)CC)c(I)c1 [Amiodarone, reference compound]
- NBD-PE fluorescence (phospholipidosis) [1]: induced NBD-PE fluorescence

SMILES: N#C[C@@]1(c2ccc3c(N)ncnn23)O[C@H](CO)[C@@H](O)[C@H]1O [GS-441524, reference compound]
- IC50 fold higher than the IC50 of sangivamycin [2]: 27 fold
- IC50 ([2]; Severe acute respiratory syndrome coronavirus 2, Vero C1008): 1420 ± 20 nM

SMILES: CC(C)C(=O)OC[C@H]1O[C@@H](n2ccc(NO)nc2=O)[C@H](O)[C@@H]1O [Molnupiravir]
- reduction of risk for hospitalization and death [3]: 30%

SMILES: CCC(CC)COC(=O)[C@H](C)N[P@](=O)(OC[C@H]1O[C@@](C#N)(c2ccc3c(N)ncnn23)[C@H](O)[C@@H]1O)Oc1ccccc1 [Remdesivir, remdesivir, reference compound]
- IC90 [2, 26]: 3530 nM
- IC50 [2, 26]: 2270 nM
- IC50 [4]: 1700 nM
- IC90 [4]: 6270 nM
- IC50 [5]: 1500 nM
- IC90 [5]: 6090 nM
- IC50 [6]: 5460 nM
- IC90 [6]: > 10000 nM
- IC50 [7]: 1270 nM
- IC90 [7]: 3280 nM
- IC50 [8]: 2370 nM
- IC90 [8]: 4030 nM
- IC50 [9]: 3 nM
- IC90 [9]: 13 nM
- IC50 [10]: 2320 nM
- time within which remdesivir and its monophosphate are lost [11]: ≤ 10 min
- IC50 [12]: 1420 nM
- IC90 [12]: 3680 nM
- IC50 [13]: 2910 nM
- IC90 [13]: > 10000 nM
- IC50 [14]: 4490 nM
- IC90 [14]: 8190 nM
- IC50 [15]: 1560 nM
- IC90 [15]: 4910 nM
- IC50 [16]: 17.6 nM
- IC50 [17]: 702 nM
- IC90 [17]: 3680 nM
- IC50 [18]: 791 nM
- IC90 [18]: 4800 nM
- IC50 [19]: 1770 nM
- IC90 [19]: 2470 nM
- half-lives (free nucleoside and monophosphate forms) [20]: about 5 hours
- IC50 [21]: 4470 nM
- IC50 [22]: 3180 nM
- IC90 [22]: > 10000 nM
- IC50 [23]: 951 nM
- IC90 [23]: 2290 nM
- IC50 [24]: 2800 nM
- IC90 [24]: > 10000 nM

SMILES: NC(=O)c1cn(C2OC(COP(=O)(O)O)C(O)C2O)c2ncnc(N)c12 (centres unmarked) [SMP, sangivamycin 5′-monophosphate]
- presence in plasma of sangivamycin-dosed mice (LC-MS/MS) [25]: detected

Reference: publication PMC8765048 (JCI Insight, 2022)
